Data on 3 molecules can be found in patent US12534465B2, “5H-pyrrolo[3,2-d]pyrimidine-2,4-diamino compounds and antibody conjugates thereof” (SUTRO BIOPHARMA, INC., priority 2019, dated 2026).

For experiment [1], the target named is T1, human TLR7 (Homo sapiens, UniProt Q9NYK1).
T1 construct: host or cells: HEK293
T1 sequence (Q9NYK1 27-1049): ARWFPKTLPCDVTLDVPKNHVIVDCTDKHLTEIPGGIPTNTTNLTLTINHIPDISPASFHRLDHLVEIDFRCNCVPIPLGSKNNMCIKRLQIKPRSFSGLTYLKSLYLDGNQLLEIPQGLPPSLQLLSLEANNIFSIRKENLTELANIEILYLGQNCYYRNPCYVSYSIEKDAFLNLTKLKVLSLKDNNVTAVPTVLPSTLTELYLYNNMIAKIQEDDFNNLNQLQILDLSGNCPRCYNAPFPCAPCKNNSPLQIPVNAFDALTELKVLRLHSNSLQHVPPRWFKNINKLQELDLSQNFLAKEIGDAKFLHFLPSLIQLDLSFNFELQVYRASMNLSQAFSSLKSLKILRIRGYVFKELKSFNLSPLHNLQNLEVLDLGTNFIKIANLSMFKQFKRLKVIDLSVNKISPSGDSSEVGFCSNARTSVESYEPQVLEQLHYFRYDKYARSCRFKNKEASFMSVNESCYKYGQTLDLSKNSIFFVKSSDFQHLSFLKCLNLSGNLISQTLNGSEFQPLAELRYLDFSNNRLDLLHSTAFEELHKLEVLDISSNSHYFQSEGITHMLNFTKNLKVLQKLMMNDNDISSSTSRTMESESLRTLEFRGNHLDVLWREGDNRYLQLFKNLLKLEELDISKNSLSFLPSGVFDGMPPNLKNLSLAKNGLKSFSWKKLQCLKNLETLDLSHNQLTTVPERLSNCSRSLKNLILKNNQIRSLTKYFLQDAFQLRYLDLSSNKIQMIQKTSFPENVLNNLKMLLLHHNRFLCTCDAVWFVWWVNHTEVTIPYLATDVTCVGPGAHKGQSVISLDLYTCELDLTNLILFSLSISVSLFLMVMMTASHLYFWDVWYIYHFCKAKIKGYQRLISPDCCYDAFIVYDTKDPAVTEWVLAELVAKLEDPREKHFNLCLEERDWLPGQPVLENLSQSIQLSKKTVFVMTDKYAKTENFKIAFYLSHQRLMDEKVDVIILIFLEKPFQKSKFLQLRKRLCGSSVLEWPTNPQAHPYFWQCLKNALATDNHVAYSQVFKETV
Briefly: HEK293-humanTLR7 SEAP reporter assay (Example 8). It is filed as cell-based. To be noted: HEK293-hTLR7 SEAP reporter cells, 24 hrs. As for the experimental part: (§1) In this example, the in vitro activity of compounds to activate human TLR7 (or human TLR8 or mouse TLR7) pathway was evaluated on HEK293 reporter cells transfected with human TLR7 (or human TLR8 or mouse TLR7) and an inducible SEAP (secreted embryonic alkaline phosphatase) reporter gene. The SEAP reporter gene is placed under the control of the IFN-β minimal promoter fused to five NF-κB and AP-1-binding sites. Stimulation with a TLR7 agonist activates NF-κB and AP-1 which induces the production of SEAP. Levels of SEAP were determined by HEK-Blue Detection medium.
(§2) The in vitro activity of compounds on TLR7 (human and mouse) and TLR8 (human only) reporter cell lines was assessed as follows. 5-(2-methoxy-4-(piperazin-1-ylmethyl)benzyl)-N4-pentyl-5H-pyrrolo[3,2-d]pyrimidine-2,4-diamine (Compound 1) is a compound used for comparison and has the structure shown below:
(§3) HEK293-humanTLR7 (hTLR7), HEK293-mouseTLR7 (mTLR7) and HEK293-humanTLR8 (hTLR8) reporter cell lines were purchased from Invivogen and cell lines were maintained in the manufacturer's recommended culture medium with required supplemental antibiotics. On the day of assay, the cells were harvested with Accutase and counted by the Vi-CELL Cell Viability Analyzers. Cells were resuspended in HEK blue detection medium and a total of 10,000 cells were seeded in each well of a 384-well flat bottom plate. Serial dilutions of test compounds (1:4 serial dilution starting from 5 μM) were added into treatment wells and assay plates were cultured at 37° C. in a CO2 incubator for 24 hrs. The plates were then read by spectrophotometry at 640 nm. Data was fitted with non-linear regression analysis, using a log(inhibitor) vs. response-variable slope, 3-parameter fit with GraphPad Prism. There result was reported in Table 1 as EC50 (the midpoint of the curve, or concentration at which 50% of the maximum effect was observed).

In experiment [2] the target is T2, human TLR8 (Homo sapiens, UniProt Q9NR97).
T2 construct: host or cells: HEK293
T2 sequence (Q9NR97 27-1041): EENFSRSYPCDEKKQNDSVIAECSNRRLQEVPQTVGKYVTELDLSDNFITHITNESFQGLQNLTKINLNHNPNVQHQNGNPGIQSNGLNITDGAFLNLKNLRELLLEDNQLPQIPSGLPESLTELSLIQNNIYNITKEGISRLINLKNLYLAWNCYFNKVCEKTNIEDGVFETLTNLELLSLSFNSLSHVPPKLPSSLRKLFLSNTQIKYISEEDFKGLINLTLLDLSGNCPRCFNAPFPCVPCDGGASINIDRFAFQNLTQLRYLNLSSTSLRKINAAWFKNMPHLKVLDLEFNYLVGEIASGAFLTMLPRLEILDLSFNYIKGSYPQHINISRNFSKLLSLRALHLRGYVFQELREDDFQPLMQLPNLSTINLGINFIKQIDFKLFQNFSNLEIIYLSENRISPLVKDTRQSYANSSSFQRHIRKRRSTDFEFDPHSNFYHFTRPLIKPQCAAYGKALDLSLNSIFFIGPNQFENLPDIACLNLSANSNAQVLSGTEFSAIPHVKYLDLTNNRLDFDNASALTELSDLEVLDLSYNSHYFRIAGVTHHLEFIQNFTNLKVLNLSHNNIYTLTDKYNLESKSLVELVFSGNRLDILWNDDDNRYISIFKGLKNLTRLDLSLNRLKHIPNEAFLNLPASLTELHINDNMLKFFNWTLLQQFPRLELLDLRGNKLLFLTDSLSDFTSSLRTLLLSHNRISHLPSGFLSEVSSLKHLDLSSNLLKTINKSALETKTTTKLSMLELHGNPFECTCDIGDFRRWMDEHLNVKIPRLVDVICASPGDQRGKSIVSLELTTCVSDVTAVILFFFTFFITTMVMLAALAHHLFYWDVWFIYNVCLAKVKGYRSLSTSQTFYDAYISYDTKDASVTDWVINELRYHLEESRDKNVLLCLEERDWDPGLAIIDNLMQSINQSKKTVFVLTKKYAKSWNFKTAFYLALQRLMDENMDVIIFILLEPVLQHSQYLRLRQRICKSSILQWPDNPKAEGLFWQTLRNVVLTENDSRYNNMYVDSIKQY
Nature of the experiment: HEK293-humanTLR8 SEAP reporter assay (Example 8). It counts as cell-based. To be noted: HEK293-hTLR8 SEAP reporter cells, 24 hrs. On the procedure: as §1, §2, §3
On the technique in general: A reporter such as luciferase makes a cellular process visible.

In the case of `CCCCCNc1nc(N)nc2ccn(Cc3ccc(CN4CCNCC4)cc3OC)c12` [Compound 1, 5-(2-methoxy-4-(piperazin-1-ylmethyl)benzyl)-N4-pentyl-5H-pyrrolo[3,2-d]pyrimidine-2,4-diamine, reference compound], the EC50 in experiment [1] came to 1.9 nM; in experiment [2] it was 338 nM.
For `CCCCCNc1nc(N)nc2ccn(Cc3ccc(CN4CC(NC)C4)cc3OC)c12` [Compound 2, 5-(2-methoxy-4-((3-(methylamino)azetidin-1-yl)methyl)benzyl)-N4-pentyl-5H-pyrrolo[3,2-d]pyrimidine-2,4-diamine], in that order: 1.6 nM and 367 nM.
`CCCCCNc1nc(N)nc2ccn(Cc3ccc(CN4CC5(CNCCO5)C4)cc3OC)c12` [Compound 10, 5-[[2-methoxy-4-(5-oxa-2,8-diazaspiro[3.5]nonan-2-ylmethyl)phenyl]methyl]-N4-pentyl-pyrrolo[3,2-d]pyrimidine-2,4-diamine]: the results for the EC50 in experiment [1] and in experiment [2] were 1.5 nM and 342 nM, respectively.

Usually EC50 stands for the concentration needed to bring the measured effect to its halfway point. Low readings indicate a more potent agent, high ones a less potent agent.
